From ChEMBL document CHEMBL1144215, “N-Propylnoraporphin-11-O-yl carboxylic esters as potent dopamine D(2) and serotonin 5-HT(1A) receptor dual ligands” (Bioorg Med Chem, 2008)

How the values were obtained:
[1] = molecular target: 5-hydroxytryptamine receptor 2A (Homo sapiens, UniProt P28223); experiment: Displacement of [3H]Ketanserin from human 5HT2A receptor expressed in HEK293 cells
D(2) dopamine receptor [2] = molecular target: T1, D(2) dopamine receptor (Homo sapiens, UniProt P14416); experiment: Displacement of [3H]Spiperone from human dopamine D2 receptor expressed in HEK293 cells
T1 sequence (P14416 whole entry): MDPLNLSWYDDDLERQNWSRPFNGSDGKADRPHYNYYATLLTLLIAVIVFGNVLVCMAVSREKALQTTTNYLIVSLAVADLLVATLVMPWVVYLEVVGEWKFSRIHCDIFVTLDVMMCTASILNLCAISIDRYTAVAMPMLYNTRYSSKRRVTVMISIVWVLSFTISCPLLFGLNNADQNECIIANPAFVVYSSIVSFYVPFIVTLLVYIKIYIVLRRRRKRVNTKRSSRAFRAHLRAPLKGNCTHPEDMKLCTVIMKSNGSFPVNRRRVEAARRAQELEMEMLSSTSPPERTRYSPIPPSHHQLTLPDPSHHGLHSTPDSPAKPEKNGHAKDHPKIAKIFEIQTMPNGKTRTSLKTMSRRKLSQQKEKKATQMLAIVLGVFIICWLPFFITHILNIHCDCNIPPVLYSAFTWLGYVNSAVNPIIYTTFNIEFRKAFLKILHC

Dopamine D1 receptor = experiment: Displacement of [3H]SCH23390 from rat dopamine D1 receptor expressed in HEK293 cells
D(2) dopamine receptor [3] = molecular target: T1, D(2) dopamine receptor; experiment: Displacement of […] from human dopamine D2 receptor expressed in HEK293 cells; format: cell-based

Chain of 5-hydroxytryptamine receptor 2A (P28223 whole entry): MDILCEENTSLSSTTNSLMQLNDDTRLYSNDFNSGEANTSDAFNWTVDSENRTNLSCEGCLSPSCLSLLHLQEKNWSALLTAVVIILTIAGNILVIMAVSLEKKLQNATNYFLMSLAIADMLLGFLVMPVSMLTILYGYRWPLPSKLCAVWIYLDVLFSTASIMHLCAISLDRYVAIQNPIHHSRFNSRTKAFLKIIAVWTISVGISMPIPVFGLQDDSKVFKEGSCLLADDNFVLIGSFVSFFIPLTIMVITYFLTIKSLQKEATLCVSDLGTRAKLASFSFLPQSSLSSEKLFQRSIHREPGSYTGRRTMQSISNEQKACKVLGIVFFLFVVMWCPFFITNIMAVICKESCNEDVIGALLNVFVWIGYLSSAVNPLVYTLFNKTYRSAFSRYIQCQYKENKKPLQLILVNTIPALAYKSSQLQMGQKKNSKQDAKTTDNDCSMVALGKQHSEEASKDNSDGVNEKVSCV

`CCCN1CCc2cccc3c2[C@H]1Cc1cccc(OC(C)=O)c1-3` was tested, and the Ki [1] was 72 nM.
In the case of `CCCN1CCc2cccc3c2[C@H]1Cc1cccc(O)c1-3`, the Ki [1] is reported as 114 nM.
`CCCCC(=O)Oc1cccc2c1-c1cccc3c1[C@@H](C2)N(CCC)CC3` was tested, and the Ki [1] was 92 nM and the Ki (D(2) dopamine receptor [2]) was over 10000 nM.
Work on `CCCN1CCc2cccc3c2[C@H]1Cc1cccc(OC(=O)CNC(=O)OCc2ccccc2)c1-3` yielded a Ki (Dopamine D1 receptor) of over 10000 nM, a Ki [1] of over 10000 nM and a Ki (D(2) dopamine receptor [2]) of over 10000 nM.
Compound `CCCC(=O)Oc1cccc2c1-c1cccc3c1[C@@H](C2)N(CCC)CC3` has a Ki (Dopamine D1 receptor) of over 10000 nM, a Ki [1] of 56 nM and a Ki (D(2) dopamine receptor [2]) of over 10000 nM.
With `CCCN1CCc2cccc3c2[C@H]1Cc1cccc(OC(=O)CCCC(=O)Oc2cccc4c2-c2cccc5c2[C@@H](C4)N(CCC)CC5)c1-3` the Ki (D(2) dopamine receptor [3]) was over 10000 nM.
`CCCN1CCc2cccc3c2[C@H]1Cc1cccc(OC(=O)CC)c1-3` gave a Ki [1] of 109 nM.
Compound `CCCCCC(=O)Oc1cccc2c1-c1cccc3c1[C@@H](C2)N(CCC)CC3` has a Ki (Dopamine D1 receptor) of over 10000 nM, a Ki [1] of 109 nM and a Ki (D(2) dopamine receptor [2]) of over 10000 nM.
In the case of `CCCCCCC(=O)Oc1cccc2c1-c1cccc3c1[C@@H](C2)N(CCC)CC3`, the Ki [1] is reported as 95 nM.
